This passage reports pest or weed control results from US4243408A, “Herbicidal N-triazolylmethyl-substituted alpha-haloacetanilide” (Chevron Research Company, priority 1978, dated 1981).

Holding throughout (format): in vivo
In assay [1] the test system is Watergrass (Echinochloa). Put plainly: Pre-Emergent Test, herbicidal effectiveness. Conditions: pre-emergence, 504 h, 33 micrograms per cm^2, 3 weeks, 0-to-100 scale, read-out: Herbicidal Effectiveness, % Control Pre, W. The procedure: (§1) An acetone solution of the test compound was prepared by mixing 750 mg of the compound, 220 mg of a nonionic surfactant and 25 ml of acetone. This solution was added to approximately 125 ml of water containing 156 mg of surfactant.
(§2) Seeds of the test vegetation were planted in a pot of soil and the test solution was sprayed uniformly onto the soil surface at a dose of 33 micrograms/cm^2. The pot was watered and placed in a greenhouse. […] At the end of this period, the herbicidal effectiveness of the compound was rated based on the physiological observations. A 0-to-100 scale was used, 0 representing no phytotoxicity, 100 representing complete kill.

Assay [2] concerns Lambsquarter (Chenopodium album). Put plainly: Pre-Emergent Test, herbicidal effectiveness. The settings on record: pre-emergence, 504 h, 33 micrograms per cm^2, 3 weeks, 0-to-100 scale, read-out: Herbicidal Effectiveness, % Control Pre, L. As to the method: as §1, §2
Assay [3] has as its system Mustard (Brassica arvensis). The assay can be described thus: Pre-Emergent Test, herbicidal effectiveness. Conditions: pre-emergence, 504 h, 33 micrograms per cm^2, 3 weeks, 0-to-100 scale. As to the method: as §1, §2
Assay [4] deals with Crabgrass (Digitaria sanguinalis). The assay can be described thus: Pre-Emergent Test, herbicidal effectiveness. Conditions: pre-emergence, 504 h, 33 micrograms per cm^2, 3 weeks, 0-to-100 scale, read-out: Herbicidal Effectiveness, % Control Pre, C. The procedure: as §1, §2
Assay [5] deals with Wild Oats (Avena fatua). The assay can be described thus: Pre-Emergent Test, herbicidal effectiveness. Conditions: pre-emergence, 504 h, 33 micrograms per cm^2, 3 weeks, 0-to-100 scale, read-out: Herbicidal Effectiveness, % Control Pre, O. The procedure:
as §1, §2

In assay [6] the test system is Pigweed (Amaranthus retroflexus). The assay can be described thus: Pre-Emergent Test, herbicidal effectiveness. The settings on record: pre-emergence, 504 h, 33 micrograms per cm^2, 3 weeks, 0-to-100 scale, read-out: Herbicidal Effectiveness, % Control Pre, P. The procedure: as §1, §2
Assay [7] concerns Watergrass (Echinochloa). Put plainly: Post-Emergent Test, herbicidal effectiveness. The settings on record: post-emergence, 504 h, 33 micrograms per cm^2, 3 weeks, 0-to-100 scale, read-out: Herbicidal Effectiveness, % Control Post, W.
Assay [8] deals with Lambsquarter (Chenopodium album). The assay can be described thus: Post-Emergent Test, herbicidal effectiveness. Conditions: post-emergence, 504 h, 33 micrograms per cm^2, 3 weeks, 0-to-100 scale, read-out: Herbicidal Effectiveness, % Control Post, L.
Assay [9] relates to Mustard (Brassica arvensis). The assay can be described thus: Post-Emergent Test, herbicidal effectiveness. The settings on record: post-emergence, 504 h, 33 micrograms per cm^2, 3 weeks, 0-to-100 scale.
Assay [10] has as its system Crabgrass (Digitaria sanguinalis). Put plainly: Post-Emergent Test, herbicidal effectiveness. The settings on record: post-emergence, 504 h, 33 micrograms per cm^2, 3 weeks, 0-to-100 scale, read-out: Herbicidal Effectiveness, % Control Post, C.
Assay [11] concerns Wild Oats (Avena fatua). The assay can be described thus: Post-Emergent Test, herbicidal effectiveness. The settings on record: post-emergence, 504 h, 33 micrograms per cm^2, 3 weeks, 0-to-100 scale, read-out: Herbicidal Effectiveness, % Control Post, O.
The subject of assay [12] is Pigweed (Amaranthus retroflexus). Put plainly: Post-Emergent Test, herbicidal effectiveness. Conditions: post-emergence, 504 h, 33 micrograms per cm^2, 3 weeks, 0-to-100 scale, read-out: Herbicidal Effectiveness, % Control Post, P.

Turning to `CCc1cccc(CC)c1NCc1nnc(SC)n1C` [Compound 23A], the pest or weed control at 33 µg/cm2 (in the assay on Watergrass (Echinochloa) [1]; in assay [2]; in assay [3]; in assay [4]; with Wild Oats (Avena fatua) [5]; in assay [6]) was 0% each time. Further, the pest or weed control at 5000 µg/mL, 33 µg/cm2 (in the assay with Watergrass (Echinochloa) [7]; in assay [8]; in assay [9]; in assay [10]; with Wild Oats (Avena fatua) [11]; in assay [12]) was 0% each time.
In the case of `Cc1cccc(C)c1NCc1nnc(S)n1C` [Compound 3, 3-(2,6-dimethylphenylaminomethyl)-4-methyl-5-mercapto-1,2,4-triazole], the pest or weed control at 33 µg/cm2 (with Watergrass (Echinochloa) [1]; in assay [2]; in [3]; in assay [4]; in the assay on Wild Oats (Avena fatua) [5]; in assay [6]) was 0% throughout. Moreover, the pest or weed control at 5000 µg/mL, 33 µg/cm2 (with Watergrass (Echinochloa) [7]; in [8]; in [9]; in [10]; in the assay on Wild Oats (Avena fatua) [11]; in assay [12]) was 0% throughout.
`Cc1nnc(CCN(C(=O)CCl)c2c(C)cccc2C)[nH]1` [Compound 10B]: the pest or weed control at 33 µg/cm2 in the assay on Watergrass (Echinochloa) [1] was determined as 95%; in [2], 0%; in assay [3], 0%; in assay [4], 80%; in the assay on Wild Oats (Avena fatua) [5], 15%; in assay [6], 0%. Moreover, the pest or weed control at 5000 µg/mL, 33 µg/cm2 worked out at 55% in the assay with Watergrass (Echinochloa) [7]; 25% in [8]; 35% in assay [9]; 40% in assay [10]; 25% with Wild Oats (Avena fatua) [11]; 0% in assay [12].
Turning to `CCc1cccc(C)c1N(Cc1nnc(C(C)C)[nH]1)C(=O)CCl` [Compound 16B], the pest or weed control at 33 µg/cm2 in the assay with Watergrass (Echinochloa) [1] was found to be 100%; in assay [2], 100%; in assay [3] it was 95%; in [4], 100%; in the assay with Wild Oats (Avena fatua) [5], 100%; in assay [6], 95%. The pest or weed control at 5000 µg/mL, 33 µg/cm2 worked out at 75% in the assay with Watergrass (Echinochloa) [7]; 35% in [8]; 40% in assay [9]; 70% in [10]; 70% in the assay on Wild Oats (Avena fatua) [11]; 40% in assay [12].
`Cc1nnc(C(C)Nc2c(C)cccc2C)[nH]1` (stereo not drawn) [Compound 11A]: the pest or weed control at 33 µg/cm2 (in the assay on Watergrass (Echinochloa) [1]; in [2]; in assay [3]; in assay [4]; in the assay with Wild Oats (Avena fatua) [5]; in [6]) was 0% throughout. Besides, the pest or weed control at 5000 µg/mL, 33 µg/cm2 (in the assay with Watergrass (Echinochloa) [7]; in [8]; in assay [9]; in [10]; in the assay on Wild Oats (Avena fatua) [11]; in assay [12]) was 0% throughout.
Turning to `CSc1nnc(CNc2c(C)cccc2C)o1` [Compound 24A, 2-(2,6-dimethylphenylaminomethyl)-5-methylthio-1,3,4-oxadiazole], the pest or weed control at 33 µg/cm2 (in the assay on Watergrass (Echinochloa) [1]; in assay [2]; in assay [3]; in assay [4]; in the assay with Wild Oats (Avena fatua) [5]; in assay [6]) was 0% in each case. Moreover, the pest or weed control at 5000 µg/mL, 33 µg/cm2 (with Watergrass (Echinochloa) [7]; in assay [8]; in assay [9]; in assay [10]; with Wild Oats (Avena fatua) [11]; in assay [12]) was 0% throughout.
In the case of `CCc1cccc(C)c1NCc1nnc(C)[nH]1` [Compound 6A], the pest or weed control at 33 µg/cm2 (in the assay with Watergrass (Echinochloa) [1]; in [2]; in assay [3]; in [4]; with Wild Oats (Avena fatua) [5]; in assay [6]) was 0% in each case. The pest or weed control at 5000 µg/mL, 33 µg/cm2 (with Watergrass (Echinochloa) [7]; in [8]; in assay [9]; in [10]; in the assay with Wild Oats (Avena fatua) [11]; in assay [12]) was 0% in each case.
In the case of `Cc1nnc(C(C)N(C(=O)CCl)c2c(C)cccc2C)[nH]1` (stereo not drawn) [Compound 11B], the pest or weed control at 33 µg/cm2 in the assay on Watergrass (Echinochloa) [1] is 100%; in assay [2], 100%; in assay [3], 80%; in [4], 100%; in the assay with Wild Oats (Avena fatua) [5], 97%; in assay [6], 90%. The pest or weed control at 5000 µg/mL, 33 µg/cm2 with Watergrass (Echinochloa) [7] amounted to 73%; in [8], 25%; in assay [9], 20%; in assay [10] it was 55%; in the assay on Wild Oats (Avena fatua) [11], 10%; in [12], 20%.
With `CCc1cccc(CC)c1NCc1nnc(C)[nH]1` [Compound 5A], the pest or weed control at 33 µg/cm2 (in the assay with Watergrass (Echinochloa) [1]; in assay [2]; in [3]; in [4]; in the assay on Wild Oats (Avena fatua) [5]; in assay [6]) was 0% each time. The pest or weed control at 5000 µg/mL, 33 µg/cm2 (with Watergrass (Echinochloa) [7]; in assay [8]; in [9]; in [10]; with Wild Oats (Avena fatua) [11]; in [12]) was 0% throughout.
Consider `Cc1cccc(C)c1N(Cc1nnc[nH]1)C(=O)CCl` [Compound 9B], for which the pest or weed control at 33 µg/cm2 with Watergrass (Echinochloa) [1] was 100%; in assay [2], 100%; in assay [3], 55%; in assay [4], 100%; in the assay with Wild Oats (Avena fatua) [5], 100%; in assay [6] it was 100%. The pest or weed control at 5000 µg/mL, 33 µg/cm2 was 75% in the assay with Watergrass (Echinochloa) [7]; 25% in assay [8]; 25% in [9]; 70% in assay [10]; 65% in the assay with Wild Oats (Avena fatua) [11]; 0% in assay [12].
